The structures appear in SMILES notation.

Data set [1] deals with small intestine of male C57BL/6J mice after 12 Gy PBI. The data set can be described thus: 12 Gy γ-ray partial body irradiation (PBI) mouse model, intestinal injury and body weight at 2 weeks. The data set is classed as in vivo. The source says: In addition, GGTi-298 (commercially available, MedChemExpress, Monmouth Junction, NJ) mitigated adverse effects of 12 Gy γ-ray PBI on villus height, crypt depth and crypt width. […] This bacterium is inversely associated with obesity, diabetes, inflammation and metabolic disorders. Lastly, PBI-induced increases in the percentage of Turicibacter and Clostridium species were mitigated by GGTi-2133. Several Clostridium species are known to be pathogenic, while an increase in Turicibacter depletes CD8+ lymphocytes in the gut, which can adversely affect gut immune function.
Data are represented as mean+/−standard deviation (SD; n=5 to 8 mice per group). “PBI” refers to partial body irradiation, and “Sham” refers to no PBI. The notations “a & b” refer to statistically significant difference from sham-irradiation and PBI, respectively. […] Both sham-irradiated mice and the PBI group received intraperitoneal administration of vehicle. […]
FIGS. 5A-5D are photomicrographs showing olfactomedin 4 (OLFM4) staining in the crypts of sham irradiated vehicle treated mice (FIGS. 5A), 12 Gy PBI plus vehicle treated mice (FIGS. […] 5D). Colors represent staining intensities: yellow (dark), red (medium), and green (weak). FIG. 5E is a bar graph showing the average staining intensity for dark, medium, and weak immunoreactivity obtained by analyzing 10 randomly selected crypts under 100× magnification from each mouse. Data are presented as mean+/−SD (n=5 to 8). The notation “a & b” refer to statistically significant difference from sham and PBI, respectively.
FIG. 6A is an H&E stained small intestinal section (20× magnification) to indicate how the villus height, crypt depth, and crypt width were measured with computerized analysis. […] Data are represented as mean+/−SD. The notation “a & b” refer to statistically significant difference from sham and PBI, respectively. Both sham-irradiated mice and the PBI group received intraperitoneal administration of vehicle.
Villus height and crypt depth were measured in 30 randomly selected villi and crypts (20× magnification), MSA was measured in 5 randomly selected areas (20× magnification), and enterocyte length and the length of their nucleus were measured in 3 enterocytes/villus in 10 villi (100× magnification) for each mouse.
Neutrophils and lymphocytes were scored under 40× magnification. Macrophages were scored in 30 villi under 100× magnification.
GGTi-2133 treatment increases the number of intestinal proliferating cells after PBI: Two proliferation markers (PCNA and Ki-67) were used. […] Cells were scored under 40× magnification.
Cells were scored under 20× magnification.
GGTi-2133 increases the expression of intestinal stem cell marker olfactomedin 4 (OLFM4) after PBI: The inventors assayed OLFM4 protein with immunohistochemistry and computerized image analysis to classify the immunoreactive regions as “dark,” “medium,” or “weak” based on staining intensity.
GGTi-298 treatment attenuates intestinal structural damage following PBI: In order to ensure another formulation of GGTi provides similar mitigation against intestinal damage following PBI, the inventors used GGTi-298 (MedChemExpress). […] Villus height, and crypt depth and width were measured in 30 randomly selected villi and crypts (20× magnification) for each mouse.

In the next data set the test system is PANC-1 cell line. The data set can be described thus: Clonogenic assay (colony forming ability). The data set is classed as cell-based, human. Conditions: dose-dependent.
In data set [2] the test system is small intestine crypts of male C57BL/6J mice after 12 Gy PBI. The experiment in a line: Surviving crypt assay (PCNA) in small intestine on day 3.5 after 12 Gy PBI. The data set is classed as in vivo, mouse. The note with it: 2.5 mg/kg i.p. at 24 h and 72 h, jejunum day 3.5, vs PBI plus vehicle. As for the experimental part: FIGS. 8A-8C are photomicrographs of small intestine sections stained for Proliferating Cell Nuclear Antigen (PCNA) in sham-irradiated vehicle treated mice (FIGS. 8A), 12 Gy PBI plus vehicle treated mice (FIG. 8B), and mice treated with 12 Gy PBI and 2.5 mg/kg GGTi-2133 on (FIG. 8C). Cross-sections from three different mice are shown in each of FIG. 8A, FIG. 8B, and FIG. 8C. Each mouse received two intraperitoneal injections of either vehicle or 2.5 mg/kg GGTi: the first injection was administered 24 hours after PBI and the second one was administered 72 hours after irradiation. Intestinal tissue was harvested 84 hours after irradiation. FIG. 8D is a bar graph showing the average number of surviving crypts from two intestinal cross sections that were used for data analysis. Crypts were scored under 20× magnification. Data are represented as mean+/−SD (n=8 animals per group). The notation “a & b” refer to statistically significant difference from sham and PBI, respectively.
GGTi-2133 treatment enhances surviving crypt number on day 3.5 after PBI: Male C57BL/6J mice were exposed to 12 Gy PBI and administered GGTi-2133 (2.5 mg/kg) at 24 hours and 72 hours after irradiation. A specimen of the jejunum was collected on day 3.5 after irradiation. The presence of more than five PCNA positive cells grouped together in a crypt was recorded as a surviving crypt. […]

Data set [3] deals with PANC-1 human pancreatic epithelioid carcinoma cell line. The data set can be described thus: MTT assay of cell proliferation and metabolic rate. Conditions: 3 concentrations, once a day for 4 days, time-dependent and dose-dependent. The format is cell-based. As for the experimental part: (§1) Human pancreatic cancer cell lines (PANC-1, BxPC-3, PSN-1) and a human prostate cancer cell line (LNCaP) were cultured in vitro at 37° C. and 5% CO2 and incubated with GGTi-2133 at 3 different concentrations. Cell proliferation and metabolic rate were measured with an MTT assay once a day for a total of 4 days. GGTi-2133 reduced the cell proliferation rate in all 4 cell lines in a dose-dependent manner. […] Finally, GGTi-2133 reduced the metabolic activity in LNCaP cells exposed to ionizing radiation.
(§2) FIG. 10F is a bar graph showing cell proliferation and metabolic rate in the LNCaP cell line were reduced to a greater extent after combined treatment with 2 Gy radiation plus GGTi-2133 treatment, in comparison to singular treatment with either 2 Gy radiation or GGTi-2133. Data are represented as mean+/−SD (n=4).

Data set [4] deals with BxPC-3 human pancreatic adenocarcinoma cell line. The experiment in a line: MTT assay of cell proliferation and metabolic rate. The note with it: 3 concentrations, once a day for 4 days, time-dependent and dose-dependent. The format is cell-based. As for the experimental part:
as §1, §2
For orientation: Tetrazolium assays rely on reduction of a dye to a coloured formazan, in cell work by metabolically active cells.

The test system of data set [5] is PSN-1 human pancreatic cancer cell line. The data set can be described thus: MTT assay of cell proliferation and metabolic rate. The data set is classed as cell-based. The note with it: 3 concentrations, once a day for 4 days, time-dependent and dose-dependent. As for the experimental part: as §1, §2
For data set [6], the system named is cecal content microbiome of male C57BL/6J mice. The data set can be described thus: Microbiome analysis of cecal content on day 3.5 after 12 Gy PBI. The data set is classed as in vivo, mouse. Conditions: 2.5 mg/kg at 24 and 72 h. As for the experimental part: FIGS. 9A-9C are pie charts showing the distribution of different bacterial strains in the cecal content of sham-irradiated vehicle treated mice (FIGS. 9A), 12 Gy PBI plus vehicle treated mice (FIG. 9B), and mice treated with […] and 2.5 mg/kg GGTi-2133 in two administrations (FIG. 9C).
GGTi-2133 alters the percent of 3 bacterial species in the cecal content of mice on day 3.5 after PBI: Male C57BL/6J mice were exposed to 12 Gy PBI and administered GGTi-2133 (2.5 mg/kg) at 24 hours and 72 hours after irradiation. A sample of cecal content was aseptically collected 3.5 days after PBI. […] There were 8 mice in each group. […] GGTi-2133 increased the percentage of Akkermansia muciniphila in irradiated mice. The percentage of Turicibacter and Clostridium species were increased in PBI plus vehicle treated mice as compared to sham-irradiated vehicle-treated mice. The percentage of Turicibacter and Clostridium species were reduced in PBI plus GGTi-2133 treated mice compared to PBI plus vehicle treated mice.

Data set [7] has as its system LNCaP androgen-sensitive human prostate adenocarcinoma cell line. The experiment in a line: MTT assay of cell proliferation and metabolic rate, with or without 2 Gy radiation. The data set is classed as cell-based. As for the experimental part: as §1, §2
The next data set deals with PSN-1 cell line. The experiment in a line: Clonogenic assay (colony forming ability). The format is cell-based, human. Conditions: dose-dependent.
Data set [8] can be described thus: Safe dose in humans (scientific literature). The format is in vivo, human. The note with it: body surface conversion factor; 54 mg/kg in humans. As for the experimental part:
Based on scientific literature, it is understood that GGTi-2418 can be administered safely to humans in doses up to 2,060 mg/m^2 (54 mg/kg body weight) on days 1-5 of each 21-day cycle. By using a body surface conversion factor, 54 mg/kg in humans compares to 660 mg/kg in mice. In humans, GGTi can generally be administered in an effective amount with a dose escalation from about 200 mg/m^2 to 2060 mg/m^2 per day on days 1-5 of each 21-day cycle. In rats, the maximum tolerated dose for GGTi is 200 mg/kg for a single dosing or 150 mg/kg/day for 7 consecutive days. In addition to intraperitoneal administration, oral gavage, intravenous infusion, and subcutaneous administration are other acceptable modes of administration. While GGTi-298 and GGTi-2133 are the preferred GGTis in the method of the present invention, use of other GGTis are expected to show the same effects although the magnitude of the effects may not be as great.

The conditions of data set [9]: days 1-5 of each 21-day cycle; cited from earlier work.
The mark [10] stands for this setting: 12 Gy PBI, 5 or 10 mg/kg body weight, vs vehicle.
[11] abbreviates: 12 Gy PBI, i.p. 1 or 2.5 mg/kg three times per week starting 24 h after PBI, 2 weeks, vs vehicle.
[12] abbreviates: 12 Gy PBI, i.p. 1 or 2.5 mg/kg, vs PBI plus vehicle.

For `COC(=O)[C@H](CC(C)C)NC(=O)c1ccc(NC[C@@H](N)CS)cc1-c1cccc2ccccc12` [GGTi-298], in data set [1] (setting [10]), the “PBI-induced increase in crypt depth” value is on record as “attenuated”, the “PBI-induced increase in crypt width” value is listed as “attenuated” and the “PBI-induced reduction in villus height” value is “attenuated”.

As to `CC(C)C[C@H](NC(=O)c1ccc(NCc2cnc[nH]2)cc1-c1cccc2ccccc12)C(=O)O` [GGTi-2133], the colony forming ability entry with PANC-1 cell line was “suppresses”. Also, the “number of surviving crypts” value in data set [2] is listed as “significantly (p=0.002) increased”. Further, the “proliferation rate and metabolic activity (MTT)” value in [3] was “suppresses”. For the same compound, the “proliferation rate and metabolic activity (MTT)” value in data set [4] is “suppresses”. The “proliferation rate and metabolic activity (MTT)” value in data set [5] is “suppresses”. Also, the “percentage of Akkermansia muciniphila in cecal content” value in data set [6] (irradiated mice) was “increased”. Further, in data set [6] (vs PBI plus vehicle), the “percentage of Clostridium species in cecal content” value is “reduced” and the “percentage of Turicibacter species in cecal content” value is recorded as “reduced”. The “OLFM4 (intestinal stem cell marker) staining” value in data set [1] (2 weeks after 12 Gy γ-ray PBI, immunohistochemistry, 1 or 2.5 mg/kg) is recorded as “restored”. The “PBI-induced body weight loss” value in data set [1] (12 Gy PBI, 2.5 mg/kg body weight i.p., vs vehicle) is reported as “significantly less”. The “proliferating cell number in the crypts (PCNA and Ki-67)” value in data set [1] (12 Gy PBI, 2.5 mg/kg body weight, vs PBI plus vehicle) is given as “significantly increased”. In data set [1] (setting [11]), the “PBI-induced decrease in mucosal surface area (MSA)” value is recorded as “attenuated”, the “PBI-induced increase in crypt depth” value was “attenuated”, the “PBI-induced increase in enterocyte length” value was “attenuated” and the “PBI-induced increase in enterocyte nuclear length” value was “attenuated”. Also, the “PBI-induced reduction in villus height” value in [1] (setting [11]) is given as “attenuated”. In data set [1] (setting [12]), the “Alcian blue staining intensity of goblet cells” value was “significantly enhanced”, the “intraepithelial macrophage (CD68) number per villus” value is listed as “decrease”, the “lymphocyte (CD3ε positive) number in the intestine” value is reported as “significant recovery” and the “neutrophil (MPO positive) number in the intestine” value is recorded as “significant recovery”. In data set [1] (setting [12]), the “number of mucus secreting goblet cells (Alcian blue)” value is listed as “elevated” and the “stromal macrophage (CD68) number per villus” value was “decrease”. For the same compound, the “proliferation rate and metabolic activity (MTT)” value in data set [7] (3 concentrations, once a day for 4 days, time-dependent and dose-dependent) is “suppresses”. In data set [7] (combined with 2 Gy radiation vs either treatment alone), the “radiation-induced decline in proliferation rate and metabolic activity” value is on record as “enhances”. Moreover, the colony forming ability result in the data set on PSN-1 cell line is recorded as “suppresses”.

As for `Cc1nc[nH]c1CN1CCN(C(=O)N[C@@H](CC(C)C)C(=O)O)[C@@H](Cc2ccccc2)C1=O` [GGTi-2418], in data set [8], the “mouse equivalent of the safe human dose” value is reported as 660 mg/kg. Moreover, in data set [9], the “dose that can be administered safely to humans” value is reported as “up to 2,060 mg/m^2” and the “dose that can be administered safely to humans, per body weight” value was not above 54 mg/kg body weight.

These data come from US20260263421A1, “Method of Mitigating Radiation Injury with Geranylgeranyl Transferase Inhibitors” (BioVentures, LLC, priority 2022, published 2026).
